According to US20230416245A1, “ADENOSINE ANALOGS FOR THE TREATMENT OF DISEASE” (BIOINTERVENE, INC., priority 2020, published 2023):

Molecular target: human adenosine A3 receptor (Homo sapiens (Human), UniProt P0DMS8)
Test: Adenosine receptor binding assay ([125I]-AB-MECA competition)
Settings: inhibition of 0.15 nM [125I]-AB-MECA binding, membranes of cells expressing human A3 receptor; read-out: hA3 Ki: Ki
Outline: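 Competition against 0.15 nM [125I]-AB-MECA was run for 120 min at room temperature on 20 μg human A3-transfected cell membranes in 50 mM Tris pH 7.4, with or without 10 mM MgCl2. Bound label was counted after filtration. Ki was derived by Cheng-Prusoff from Hill-fitted IC50 values.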

Chain of human adenosine A3 receptor (P0DMS8 whole entry): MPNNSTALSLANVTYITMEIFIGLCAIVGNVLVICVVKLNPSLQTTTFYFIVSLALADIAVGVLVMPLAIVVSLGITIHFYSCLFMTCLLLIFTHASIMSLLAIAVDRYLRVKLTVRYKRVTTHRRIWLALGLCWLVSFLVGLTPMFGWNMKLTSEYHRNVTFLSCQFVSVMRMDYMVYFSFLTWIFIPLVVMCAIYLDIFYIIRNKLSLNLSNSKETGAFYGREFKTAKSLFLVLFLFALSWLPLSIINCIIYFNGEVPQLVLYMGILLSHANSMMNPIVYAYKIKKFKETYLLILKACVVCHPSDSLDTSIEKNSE

Ki | Structure (SMILES)
1.7 nM | O[C@@H]1[C@H](O)[C@@H]2C[C@@H]2[C@H]1n1cnc2c(NCC(F)F)nc(Cl)nc21 [Compound 35, (1R,2R,3S,4R,5S)-4-(2-chloro-6-((2,2-difluoroethyl)amino)-9H-purin-9-yl)bicyclo[3.1.0]hexane-2,3-diol]
2 nM | O[C@@H]1[C@H](O)[C@@H]2C[C@@H]2[C@H]1n1cnc2c(NCC(F)F)cc(Cl)nc21 [Compound 40, (1R,2R,3S,4R,5S)-4-(5-chloro-7-((2,2-difluoroethyl)amino)-3H-imidazo[4,5-b]pyridin-3-yl)bicyclo[3.1.0]hexane-2,3-diol]
21.3 nM | CCNc1cc(C#CC2CC2)nc2c1ncn2[C@H]1[C@H](O)[C@H](O)[C@@H]2C[C@@H]21 [Compound 46, (1R,2R,3S,4R,5S)-4-(5-(cyclopropylethynyl)-7-(ethylamino)-3H-imidazo[4,5-b]pyridin-3-yl)bicyclo[3.1.0]hexane-2,3-diol]
> 9400 nM | Cc1c(Cl)nc2c(ncn2[C@H]2[C@H](O)[C@H](O)[C@@H]3C[C@@H]32)c1NCC(F)F [Compound 60, (1R,2R,3S,4R,5S)-4-(5-chloro-7-((2,2-difluoroethyl)amino)-6-methyl-3H-imidazo[4,5-b]pyridin-3-yl)bicyclo[3.1.0]hexane-2,3-diol]
